{"source": "patent US20230279379A1", "about": "“METHODS AND MICROFLUIDIC DEVICE FOR PRODUCING EXTRACELLULAR VESICLES” (THE BOARD OF TRUSTEES OF THE UNIVERSITY OF ILLINOIS, priority 2022, published 2023)", "format_in_all_cases": "cell-based", "key": {"F-actin in MSCs [1]": {"tested_on": "F-actin in MSCs", "experiment": "Confocal imaging of F-actin in cells on hydrogels", "conditions": "CK869 for 2 hours; cell adhesion for 4 hours", "method": "Sample Preparation for Imaging of F-Actin in Cells on Hydrogels. To prepare samples for F-actin imaging, glass bottom dishes (No 0., 35 mm; MatTek) were silanized, and a thin layer of PEG-DA hydrogel with varied elasticity was formed as described above. After cell seeding on hydrogels and culturing cells in the presence of DMSO or CK869, cells were permeabilized with 0.0015% saponin (Sigma) in a cytoskeleton buffer (10 mM MES, pH 6.0, 150 mM NaCl, 5 mM EGTA, 5 mM glucose, and 5 mM MgCl2) for 4 minutes at room temperature. The samples were then washed with the cytoskeleton buffer 3 times and fixed with 4% paraformaldehyde in the cytoskeleton buffer for 20 minutes at room temperature. After washing 3 times with the cytoskeleton buffer, the samples were reduced in 0.1% sodium borohydride in PBS for 20 minutes at room temperature. To label F-actin in cells, the samples were stained with a fluorescent stain sold under the tradename ALEXA FLUOR® 488 phalloidin (1:1000; Cayman) for confocal imaging or ALEXA FLUORO 647 phalloidin (1:10000; Cayman) for super-resolution imaging in PBS with 3% BSA for 40 minutes at room temperature. The samples were washed 3 times with PBS prior to imaging.\nConfocal Imaging of F-actin. […] A mean projection image was created from each confocal stack, and average intensity ALEXA FLUOR® 488 phalloidin per cell was analyzed by ImageJ (NIH). […]"}, "F-actin in MSCs [2]": {"tested_on": "F-actin in MSCs", "experiment": "dSTORM super-resolution imaging and DBSCAN clustering of F-actin", "conditions": "CK869 treatment for 2 hours", "method": "Sample Preparation for Imaging of F-Actin in Cells on Hydrogels. To prepare samples for F-actin imaging, glass bottom dishes (No 0., 35 mm; MatTek) were silanized, and a thin layer of PEG-DA hydrogel with varied elasticity was formed as described above. After cell seeding on hydrogels and culturing cells in the presence of DMSO or CK869, cells were permeabilized with 0.0015% saponin (Sigma) in a cytoskeleton buffer (10 mM MES, pH 6.0, 150 mM NaCl, 5 mM EGTA, 5 mM glucose, and 5 mM MgCl2) for 4 minutes at room temperature. The samples were then washed with the cytoskeleton buffer 3 times and fixed with 4% paraformaldehyde in the cytoskeleton buffer for 20 minutes at room temperature. […]\nSuper-Resolution Imaging of F-actin. […] 50,000 images were recorded for each cell in each condition; after rejecting overtly dense/bleached images approx. 30,000 images were analyzed in each cell/condition for localization detection in post-processing using ThunderSTORM (ImageJ), with the following settings in brief: wavelet filtering (B-spline order 3, scale 2); integrated Gaussian fitting (radius: 3 pixels, initial sigma: 1.6 pixels); local maximum with 8-neighborhood; camera pixel size 160 nm. […]\nNanoscale Clustering Analysis of F-actin. […] The percentage of F-actin localizations that belong to each cluster group per cell was then quantified and used for statistical analysis."}, "[3]": {"tested_on": "membrane-cytoskeleton attachment in MSCs", "experiment": "Force for membrane tether formation by AFM", "conditions": "CK869 treatment for 2 hours; within 4 hours of cell adhesion", "method": "Measurement of Force for Membrane Tether Formation by Atomic Force Microscopy (AFM). Membrane tethering force was measured by using 3D-BIO AFM (Asylum Research, Oxford Instruments) with TR400PSA cantilevers (OTR4; spring constant=30 pN/nm). Indentation depth for each measurement was 4 μm with a velocity of 2 μm/s, and the force curve for each measurement was recorded by the AFM software (AR14). For each cell, 25-50 force curves were analyzed. In force mode, the piezotranducer (PZT) was set to drive the cantilever to approach, touch, make an indentation, and retract over a predefined distance in the optical axis perpendicular to the cell surface. The force curve was generated from the recorded vertical-axis movement of the PZT and the deflection of the cantilever with a known dimension and a spring constant. In the force curve representing the retraction of the cantilever from a cell, a sudden release of force occurred at the rupture of a membrane tether was quantified via a custom MATLAB program."}}}
{"molecule": "COc1ccc(N2C(=O)CSC2c2cccc(Br)c2)c(OC)c1", "note": "(stereo not drawn) [CK869]", "values": [{"measurement": "mean intensity of phalloidin-labelled F-actin signal per cell", "setting": "F-actin in MSCs [1]", "result": "decrease the signal intensity on both substrates"}, {"measurement": "distribution of F-actin clusters", "setting": "F-actin in MSCs [2]", "result": "did not alter the distribution of different F-actin clusters on both substrates"}, {"measurement": "force of membrane tether formation", "setting": "[3]", "result": "slightly decreased tethering on the soft hydrogel"}]}
